Measurements taken from patent US20030236291A1, “Use of citreamicins” (priority 2000, published 2003).

Key:
Assay type in all cases: cell-based
[1] = tested on: P388 (ATCC CCL-46, suspension culture of a lymphoid neoplasm from DBA/2 mouse); assay: In vitro antitumor screening, growth inhibition of P388 cells
From the text: (§1) Its antitumor activity has been detected in vitro by culturing the tumor cells following the methodology described by
(§2) (1): Raymond I. Bergeron, Paul F. Cavanaugh, Jr., Steven J. Mine, Robert G. Hughes, Jr., Gary T. Elliot and Carl W. Porter. Antineoplastic and antiherpetic activity of spermidine catecholamide iron chelators. Biochem. Bioph. Res. Comm. 1984, 121(3): 848-854; and
(§3) (2). Alan C. Schroeder, Robert G. Hughes, Jr. and Alexander Bloch. Effects of Acycic Pyrimidine Nucleoside Analoges. J. Med. Chem. 1981, 24:1078-1083.
(§4) Cells were maintained in logarithmic phase of growth in Eagle's Minimum Essential Medium, with Earle's Balanced Salts, with 2.0 mM L-glutamine, with non-essential amino acids, without sodium bicarbonate (EMEM/neaa); supplemented with 10% Fetal Calf Serum (FCS), 10^−2 M sodium bicarbonate and 0.1 g/l penicillin-G +streptomycin sulfate.
A screening procedure has been carried out to determine and compare the antitumor activity of citreamicin CL, using an adapted form of the method described by Bergeron et al. The antitumor cells employed were P388 (ATCC CCL-46, suspension culture of a lymphoid neoplasm from DBA/2 mouse), A549 (ATCC CCL-185, monolayer culture of a human lung carcinoma) and HT-29 (ATCC HTB-38, monolayer culture of a human colon carcinoma). […]

[2] = tested on: A549 (ATCC CCL-185, monolayer culture of a human lung carcinoma); assay: In vitro antitumor screening, growth inhibition of A549 cells (Crystal Violet); details: approximate IC50; three days of incubation at 37° C.; Crystal Violet staining; duplicate
From the text: as §1, §2, §3
as §4, with “sulfate. […]” for “sulfate.”
(§5) A549 and HT-29 cells were seeded into 16 mm wells at 2×10^4 cells per well in 1 ml aliquots of MEM 1OFCS containing the indicated concentration of drug. […] An approximate IC50 was determined by comparing the growth in wells with drug to the growth in wells control.

[3] = tested on: HT-29 (ATCC HTB-38, monolayer culture of a human colon carcinoma); assay: In vitro antitumor screening, growth inhibition of HT-29 cells (Crystal Violet); details: approximate IC50; three days of incubation at 37° C.; Crystal Violet staining; duplicate
From the text: as §1, §2, §3
as §4, with “sulfate. […]” for “sulfate.”
as §5

In the case of COc1cc2oc3c(c(=O)c2cc1OC)C(=O)c1c(ccc2cc4c(c(O)c12)C(=O)N1C(C)(C4)OC(=O)C1(C)COC(=O)CC(C)C)C3=O (stereo not drawn) [Citreamicin α, citreamicin α], the IC50 ([1]; approximate IC50, three days of incubation at 37° C., growth in wells with drug vs control wells, duplicate) is reported as 3 nM, the “in vitro antitumor activity” value ([1]; cell line derived from mouse lymphoma) is reported as “exhibits in vitro antitumor activity” and the IC50 [2] is reported as 4 nM. The IC50 [3] was 4 nM.
